Source: US20100179192A1, “USE OF NITRIC OXIDE RELEASING COMPOUNDS IN THE TREATMENT OF CHRONIC PAIN” (NICOX S.A., priority 2007, published 2010)

Tested on: hyperalgesic responses following chronic constriction injuries of the rat sciatic nerve
Assay: Chronic constriction injury (CCI)-induced mechanical hyperalgesia in rats (modified Randall-Selitto method)
Assay type: in vivo
Settings: for Contra-PWT30 min (paw withdrawal threshold, contralateral unlesioned paw) / Ipsi-PWT30 min (paw withdrawal threshold, CCI-lesioned ipsilateral paw) / PWT30 min: 30 min after treatment; for Contra-PWT30 min (paw withdrawal threshold, contralateral unlesioned paw) / Ipsi-PWT30 min (paw withdrawal threshold, CCI-lesioned ipsilateral paw): cut-off 240 g; for Ipsi-PWT30 min (paw withdrawal threshold, CCI-lesioned ipsilateral paw): 7 days after sciatic nerve ligation; for PWT30 min / PWT60 min: Table II, 175 μmol/kg sc each agent, alone or in combination; for PWT60 min: 60 min after treatment
Protocol: The efficacy of nitrooxyderivatives of antioxidant compounds of formula (I) in the treatment of neuropathic pain was evaluated in the model of hyperalgesic responses following chronic constriction injuries of the rat sciatic nerve. The pharmacological activity of the compounds of formula (I) was compared to that of the known analgesic drugs. The parent not-derivatized antioxidant drug was used as reference. The efficacy of the equimolar combination of compounds of formula (I) and analgesic drugs selected between the group of gabapentin, tiagabine and pregabalin was also evaluated, on the same experimental model.
The method described by Bennet and Xie (1988) was generally followed. Rats were anesthetized with chloral hydrate (380 mg/kg ip, Sigma). The right common sciatic nerve was exposed at the level of the middle of the high by blunt dissection through the biceps femoris. Proximal to the sciatic's trifurcation, about 12 mm of nerve was freed of adhering tissue and four ligatures (3/0 silk suture) were tied loosely around it with about 1 mm spacings. Ligatures were tied such that the diameter of the nerve was only barely constricted. […] The incision was closed in layers. The experiments were then carried out 1 week after surgery. Mechanical hyperalgesia was determined with an analgesimeter (Ugo Basile, Italy), using the modified Randall-Selitto method. Briefly, a conical stylus with a hemispherical tip was places upon the middle of hind paw dorsum. The animal was gently restrained and calibrated pressure of gradually increasing intensity was applied until the rat withdrew the hindpaw. Threshold pressure (g) of both hindpaws was determined every 15 minutes, with two measurements before the treatments (pretest), and from 15 to 60 minutes after treatment. An arbitrary cut-off value of 240 g was adopted.

SMILES	Contra-PWT30 min (paw withdrawal threshold, contralateral unlesioned paw) (175 μmol/kg sc)	sedative effect (175 μmol/kg sc, observed in CCI experiment)	Ipsi-PWT30 min (paw withdrawal threshold, CCI-lesioned ipsilateral paw) (175 μmol/kg sc)	PWT30 min	PWT60 min
COc1cc(/C=C/C(=O)OCCCCO[N+](=O)[O-])ccc1O [Ferulic acid 4-(nitrooxy)butyl ester, Ferulic Acid 4-(nitrooxy)butyl ester]	98.5 ± 4.8 g	did not induce any appreciable sedative effect	76.3 ± 4.8 g	76.3 ± 4.8 g	37.5 ± 5.9 g
COc1cc(/C=C/C(=O)O)ccc1O [Ferulic acid]	71.4 ± 11.1 g	–	37.9 ± 15.5 g	–	–
NCC1(CC(=O)O)CCCCC1 [Gabapentin]	84.3 ± 3.9 g	–	75.1 ± 9.8 g	75.1 ± 9.8 g	37.6 ± 7.0 g
